Data from patent publication US12331054B2, “Perk inhibiting imidazolopyrazine compounds” (HiberCell, Inc., priority 2019, dated 2025).

Legend:
[1] = test system: eIF2α in HEK293-EGFP-eIF2α cells; experiment: PERK Cellular Assay (HEK293-EGFP-eIF2α cells, tunicamycin-induced ER stress, TR-FRET); assay type: cell-based; conditions: tunicamycin 2 hours
Procedure, shortened: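 Cells pre-incubated with inhibitor 30 min at 37 °C, then ER stress induced with […] tunicamycin for 2 h. TR-FRET read on lysates; ratio normalized to DMSO control as percent inhibition over a 10-point, 3-fold dilution series; IC50 from 4-parameter logistic fit.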

[2] = target: Recombinant human EIF2AK3 (PERK) catalytic domain (amino acids 536-1116) (Homo sapiens (Human), UniProt Q9NZJ5); experiment: PERK In Vitro Activity Assay (isolated), TR-FRET kinase assay; conditions: isolated PERK enzyme, 1.5 μM ATP, read-out: Biochemical IC50
Procedure, shortened: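 Recombinant PERK catalytic domain was incubated with 100–200 nM GFP-eIF2a substrate in 50 mM HEPES pH 7.5, 10 mM MgCl2, 1.0 mM EGTA and 0.01% Brij-35 for 45 min at room temperature. After a 10 mM EDTA stop, 2 nM Tb-anti-phospho-eIF2a was added for 90 min, and IC50 was fitted from TR-FRET ratios by 4-parameter logistic regression.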

Recombinant human EIF2AK3 (PERK) catalytic domain (amino acids 536-1116), sequence (Q9NZJ5 536-1116): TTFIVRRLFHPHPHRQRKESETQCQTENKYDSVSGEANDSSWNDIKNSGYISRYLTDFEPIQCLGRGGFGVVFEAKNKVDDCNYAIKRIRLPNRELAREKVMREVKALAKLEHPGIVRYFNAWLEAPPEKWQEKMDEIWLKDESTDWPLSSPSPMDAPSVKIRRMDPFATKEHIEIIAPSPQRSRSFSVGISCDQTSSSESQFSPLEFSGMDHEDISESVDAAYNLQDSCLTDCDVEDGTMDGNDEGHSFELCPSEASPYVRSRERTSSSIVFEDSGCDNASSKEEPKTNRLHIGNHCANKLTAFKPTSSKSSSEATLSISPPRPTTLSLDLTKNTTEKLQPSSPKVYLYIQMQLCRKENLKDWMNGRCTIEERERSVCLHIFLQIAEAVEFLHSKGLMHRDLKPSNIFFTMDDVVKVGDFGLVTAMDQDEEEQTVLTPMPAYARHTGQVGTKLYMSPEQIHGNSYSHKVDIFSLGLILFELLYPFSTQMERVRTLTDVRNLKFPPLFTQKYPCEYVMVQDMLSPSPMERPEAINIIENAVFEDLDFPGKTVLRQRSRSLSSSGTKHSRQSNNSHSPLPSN

[2H]C([2H])([2H])c1nc(-c2ccc(NC(=O)C(O)c3cc(F)cc(C(F)(F)F)c3)cc2F)c2c(N)nc(C)cn12 (stereo not shown) [Example 117, N-[4-[8-amino-6-methyl-3-(trideuteriomethyl)imidazo[1,5-a]pyrazin-1-yl]-3-fluoro-phenyl]-2-[3-fluoro-5-(trifluoromethyl)phenyl]-2-hydroxy-acetamide]
IC50 [1]: 251 to 500 nM | IC50 [2]: 51 to 100 nM

[2H]C([2H])([2H])c1nc(-c2ccc(NC(=O)C(O)c3cc(F)cc(F)c3)cc2C)c2c(N)ncc(C)n12 (stereo not shown) [Example 51, N-[4-[8-amino-5-methyl-3-(trideuteriomethyl)imidazo[1,5-a]pyrazin-1-yl]-3-methyl-phenyl]-2-(3,5-difluoro-phenyl)-2-hydroxy-acetamide]
IC50 [1]: 51 to 100 nM | IC50 [2]: 1 to 25 nM

[2H]C([2H])([2H])c1nc(-c2ccc(NC(=O)C(O)c3cccc(C(F)(F)F)c3)cc2F)c2c(N)nc(C)cn12 (stereo not shown) [Example 96, N-[4-[8-amino-6-methyl-3-(trideuteriomethyl)imidazo[1,5-a]pyrazin-1-yl]-3-fluoro-phenyl]-2-hydroxy-2-[3-(trifluoromethyl)phenyl]acetamide]
IC50 [1]: 1 to 25 nM | IC50 [2]: 1 to 25 nM

[2H]C([2H])([2H])c1nc(-c2ccc(NC(=O)C(O)c3cccc(F)c3)cc2C)c2c(N)ncc(C(F)(F)F)n12 (stereo not shown) [Example 30, N-[4-[8-amino-3-(trideuteriomethyl)-5-(trifluoromethyl)imidazo[1,5-a]pyrazin-1-yl]-3-methyl-phenyl]-2-(3-fluorophenyl)-2-hydroxy-acetamide]
IC50 [1]: 1 to 25 nM | IC50 [2]: 1 to 25 nM

[2H]C([2H])([2H])c1nc(-c2ccc(NC(=O)C(O)c3cc(F)cc(F)c3)cc2F)c2c(N)nc(C)cn12 (stereo not shown) [Example 103, N-[4-[8-amino-6-methyl-3-(trideuteriomethyl)imidazo[1,5-a]pyrazin-1-yl]-3-fluoro-phenyl]-2-(3,5-difluoro-phenyl)-2-hydroxy-acetamide]
IC50 [1]: 251 to 500 nM | IC50 [2]: 1 to 25 nM

[2H]C([2H])([2H])c1nc(-c2ccc(NC(=O)C(O)c3cc(F)cc(F)c3)c(F)c2F)c2c(N)ncc(C(F)(F)F)n12 (stereo not shown) [Example 159, N-[4-[8-amino-3-(trideuteriomethyl)-5-(trifluoromethyl)imidazo[1,5-a]pyrazin-1-yl]-2,3-difluoro-phenyl]-2-(3,5-difluorophenyl)-2-hydroxy-acetamide]
IC50 [1]: 251 to 500 nM | IC50 [2]: 51 to 100 nM

[2H]C([2H])([2H])c1nc(-c2ccc(NC(=O)C(O)c3cc(F)cc(F)c3)cc2F)c2c(N)ncc(C(F)(F)F)n12 (stereo not shown) [Example 106, N-[4-[8-amino-3-(trideuteriomethyl)-5-(trifluoromethyl)imidazo[1,5-a]pyrazin-1-yl]-3-fluoro-phenyl]-2-(3,5-difluoro-phenyl)-2-hydroxy-acetamide]
IC50 [1]: 1 to 25 nM | IC50 [2]: 1 to 25 nM

[2H]C([2H])([2H])c1nc(-c2ccc(NC(=O)C(O)c3cccc(Cl)c3)cc2F)c2c(N)ncc(C)n12 (stereo not shown) [Example 84, N-[4-[8-amino-5-methyl-3-(trideuteriomethyl)imidazo[1,5-a]pyrazin-1-yl]-3-fluoro-phenyl]-2-(3-chlorophenyl)-2-hydroxy-acetamide]
IC50 [1]: 1 to 25 nM | IC50 [2]: 1 to 25 nM

[2H]C([2H])([2H])c1nc(-c2ccc(NC(=O)C(O)c3cccc(F)c3)c(F)c2F)c2c(N)ncc(C)n12 (stereo not shown) [Example 133, N-[4-[8-amino-5-methyl-3-(trideuteriomethyl)imidazo[1,5-a]pyrazin-1-yl]-2,3-difluoro-phenyl]-2-(3-fluoro-phenyl)-2-hydroxy-acetamide]
IC50 [1]: 101 to 250 nM | IC50 [2]: 1 to 25 nM

Cc1cc(NC(=O)C(O)c2cccc(Cl)c2)ccc1-c1nc(C)n2c(C)cnc(N)c12 (stereo not shown) [Example 39, N-(4-(8-amino-3,5-dimethylimidazo [1,5-a]pyrazin-1-yl)-3-methyl-phenyl)-2-(3-chlorophenyl)-2-hydroxyacetamide]
IC50 [1]: 101 to 250 nM | IC50 [2]: 1 to 25 nM

[2H]C([2H])([2H])c1nc(-c2ccc(NC(=O)C(O)c3cccc(F)c3)c(F)c2F)c2c(N)ncc(C)n12 (stereo not shown) [Example 132, N-[4-[8-amino-5-methyl-3-(trideuteriomethyl)imidazo[1,5-a]pyrazin-1-yl]-2,3-difluoro-phenyl]-2-(3-fluoro-phenyl)-2-hydroxy-acetamide]
IC50 [1]: 1 to 25 nM | IC50 [2]: 1 to 25 nM
